# Tests used:
# [1] = target: T1, Protein-arginine deiminase type-1 (Homo sapiens, UniProt Q9ULC6); assay: Inhibition of recombinant human 6His-tagged PAD1 assessed as reduction in residual activity preincubated for 15 mins followed by addition of N-benzoylated arginine ethyl ester hydrochloride measured after 15 mins by colder assay
# T1 sequence (Q9ULC6 whole entry): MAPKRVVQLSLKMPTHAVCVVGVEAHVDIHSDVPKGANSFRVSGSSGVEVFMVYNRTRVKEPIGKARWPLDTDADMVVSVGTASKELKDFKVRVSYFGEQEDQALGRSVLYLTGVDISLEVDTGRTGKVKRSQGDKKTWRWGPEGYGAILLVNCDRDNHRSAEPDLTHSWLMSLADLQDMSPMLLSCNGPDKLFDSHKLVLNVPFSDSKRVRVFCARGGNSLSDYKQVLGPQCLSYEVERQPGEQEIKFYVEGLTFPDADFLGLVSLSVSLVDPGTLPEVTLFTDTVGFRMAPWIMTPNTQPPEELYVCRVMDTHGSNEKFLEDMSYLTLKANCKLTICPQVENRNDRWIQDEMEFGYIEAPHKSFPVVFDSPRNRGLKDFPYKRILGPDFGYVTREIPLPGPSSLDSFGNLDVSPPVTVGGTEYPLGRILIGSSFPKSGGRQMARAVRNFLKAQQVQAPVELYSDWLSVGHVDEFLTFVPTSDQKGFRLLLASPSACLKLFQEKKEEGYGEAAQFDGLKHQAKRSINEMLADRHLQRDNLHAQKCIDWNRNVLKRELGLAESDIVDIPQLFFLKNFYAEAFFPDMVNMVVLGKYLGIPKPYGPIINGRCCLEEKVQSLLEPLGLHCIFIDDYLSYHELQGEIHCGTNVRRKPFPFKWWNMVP
# [2] = target: Protein-arginine deiminase type-2 (Homo sapiens, UniProt Q9Y2J8); assay: Inhibition of recombinant human 6His-tagged PAD2 assessed as reduction in residual activity preincubated for 15 mins followed by addition of N-benzoylated arginine ethyl ester hydrochloride measured after 15 mins by colder assay
# [3] = target: Protein-arginine deiminase type-4 (Homo sapiens, UniProt Q9UM07); assay: Inhibition of recombinant human GST-tagged PAD4 expressed in Escherichia coli BL21-DE3 pLysS assessed as reduction in reduction in residual activity preincubated for 15 mins followed by addition of N-benzoylated arginine ethyl ester hydrochloride measured after 15 mins by colder assay
# Sequence of Protein-arginine deiminase type-4 (Q9UM07 whole entry): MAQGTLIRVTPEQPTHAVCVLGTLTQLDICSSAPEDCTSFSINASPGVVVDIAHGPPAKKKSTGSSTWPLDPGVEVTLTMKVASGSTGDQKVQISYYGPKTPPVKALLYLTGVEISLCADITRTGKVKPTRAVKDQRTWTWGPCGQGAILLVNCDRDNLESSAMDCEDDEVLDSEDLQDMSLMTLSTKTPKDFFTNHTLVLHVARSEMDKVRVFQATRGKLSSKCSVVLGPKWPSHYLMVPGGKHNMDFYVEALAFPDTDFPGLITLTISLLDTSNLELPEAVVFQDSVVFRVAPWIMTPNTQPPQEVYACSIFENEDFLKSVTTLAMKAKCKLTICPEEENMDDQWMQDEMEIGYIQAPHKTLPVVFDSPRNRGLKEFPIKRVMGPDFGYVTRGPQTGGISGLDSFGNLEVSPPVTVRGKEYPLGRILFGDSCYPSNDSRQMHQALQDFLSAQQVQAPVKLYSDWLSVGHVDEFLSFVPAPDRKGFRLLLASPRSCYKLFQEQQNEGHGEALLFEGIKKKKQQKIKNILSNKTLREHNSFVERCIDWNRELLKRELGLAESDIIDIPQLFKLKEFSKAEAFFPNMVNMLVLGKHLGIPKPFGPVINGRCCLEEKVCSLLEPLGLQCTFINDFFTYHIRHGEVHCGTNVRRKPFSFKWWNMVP
# Sequence of Protein-arginine deiminase type-2 (Q9Y2J8 whole entry): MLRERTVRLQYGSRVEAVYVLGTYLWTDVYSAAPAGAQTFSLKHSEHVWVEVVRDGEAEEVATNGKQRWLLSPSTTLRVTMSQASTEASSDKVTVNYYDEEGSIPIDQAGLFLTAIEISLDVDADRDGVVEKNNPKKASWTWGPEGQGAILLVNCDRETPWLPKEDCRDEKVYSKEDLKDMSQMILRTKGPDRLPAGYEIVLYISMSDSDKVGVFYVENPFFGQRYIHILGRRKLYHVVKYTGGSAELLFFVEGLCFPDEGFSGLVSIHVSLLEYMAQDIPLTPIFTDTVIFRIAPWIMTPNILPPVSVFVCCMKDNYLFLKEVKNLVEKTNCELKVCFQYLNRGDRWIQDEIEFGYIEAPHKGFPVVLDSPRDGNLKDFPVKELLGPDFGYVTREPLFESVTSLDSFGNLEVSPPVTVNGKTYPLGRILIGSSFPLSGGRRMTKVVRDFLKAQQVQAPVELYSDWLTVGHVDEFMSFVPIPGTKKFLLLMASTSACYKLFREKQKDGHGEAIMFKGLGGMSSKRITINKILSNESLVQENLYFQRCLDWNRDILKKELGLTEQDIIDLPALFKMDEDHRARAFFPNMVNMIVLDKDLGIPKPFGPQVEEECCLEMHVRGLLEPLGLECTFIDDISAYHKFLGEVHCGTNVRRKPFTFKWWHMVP
IC50 [1],IC50 [2],IC50 [3],SMILES
> 500 µM,151 µM,,N=C(CCl)NCCOC(=O)NCc1cccc(-c2ccccc2)c1
,140 µM,129 µM,N=C(CCl)NCCNC(=O)NCc1cccc(-c2ccccc2)c1

# Continued, compound first:
SMILES,IC50 [1],IC50 [2],IC50 [3]
N=C(CCl)NCCCc1nc(Cl)c(-c2cccc(-c3ccccc3)c2)[nH]1,161 µM,,
N=C(CCl)NC/C=C/C(=O)NCc1cccc(-c2ccccc2)c1,125 µM,,
N=C(CCl)NCC#CC(=O)NCc1cccc(-c2ccccc2)c1,408 µM,153 µM,
N=C(CCl)NCCCc1cn(-c2cccc(-c3ccccc3)c2)nn1,294 µM,110 µM,
